This assay deals with HCT116. Conditions: 72 h. In short, it runs like this: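 HCT116 cells were seeded at 250 per well in 1536-well plates with 5 h allowed for attachment. CellTiter-Glo luminescence was normalized against vehicle (0%) and positive control (-100%) before pattern correction. The IC50 and maximal efficacy figures derive from four-parameter Hill fits.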

Structures can show the parent of a compound that is named as a salt. Bounds are passed on as bounds.

`COC(=O)C(c1ccccc1)C1CCCCN1` (configuration not stated) [METHYLPHENIDATE HYDROCHLORIDE]: the IC50 cell viability is above 45.8 µM (ICRF193 0 nM) and above 45.8 µM (ICRF193 200 nM).
Take `CS(=O)(=O)n1cc2c(n1)CN([C@H]1CO[C@H](c3cc(F)ccc3F)[C@@H](N)C1)C2` [MK-3102]: the IC50 cell viability was above 45.8 µM (ICRF193 0 nM) and above 45.8 µM (ICRF193 200 nM).
For `CC(C)(C)NCC(O)c1cc(Cl)c(N)c(C(F)(F)F)c1` (configuration not stated) [Mabuterol hydrochloride], the IC50 cell viability is above 45.8 µM (ICRF193 0 nM) and above 45.8 µM (ICRF193 200 nM).
As for `CCCNS(=O)(=O)Nc1ncnc(OCCOc2ncc(Br)cn2)c1-c1ccc(Br)cc1` [Macitentan], the IC50 cell viability reads like this: (ICRF193 0 nM) above 45.8 µM; (ICRF193 200 nM) above 45.8 µM.
Turning to `NCc1ccc(S(N)(=O)=O)cc1` [Mafenide hydrochloride], the IC50 cell viability by setting is: (ICRF193 0 nM) above 45.8 µM; (ICRF193 200 nM) above 45.8 µM.
`CCOC(=O)CC(SP(=S)(OC)OC)C(=O)OCC` (configuration not stated) [Malathion] registered an IC50 cell viability (ICRF193 0 nM) above 45.8 µM and an IC50 cell viability (ICRF193 200 nM) above 45.8 µM.
Take `O=C(O)/C=C\C(=O)O` [Maleic acid]: the IC50 cell viability (ICRF193 0 nM) is above 45.8 µM and the IC50 cell viability (ICRF193 200 nM) is above 45.8 µM.
On to `CC(C)OC(=O)C(C(=O)OC(C)C)=C1SC=CS1` [Malotilate], for which the IC50 cell viability runs as follows: (ICRF193 0 nM) above 45.8 µM; (ICRF193 200 nM) above 45.8 µM.
Turning to `CN1CCN(c2c(F)cc3c(=O)c(C(=O)O)cn4c3c2OCN4C)CC1` [Marbofloxacin], the IC50 cell viability was above 45.8 µM (ICRF193 0 nM) and above 45.8 µM (ICRF193 200 nM).
In the case of `C=C1/C(=C\C=C2/CCC[C@]3(C)[C@@H]([C@H](C)OCCC(C)(C)O)CC[C@@H]23)C[C@@H](O)C[C@@H]1O` [Maxacalcitol-D6], the IC50 cell viability was above 45.8 µM (ICRF193 0 nM) and above 45.8 µM (ICRF193 200 nM).
As for `CN1[C@@H]2CCC(C)(C)[C@H]1C[C@H](OC(=O)C(O)(c1cccs1)c1cccs1)C2` [Mazaticol], the IC50 cell viability was above 45.8 µM (ICRF193 0 nM) and above 45.8 µM (ICRF193 200 nM).
`CCN(CCCCOC(=O)c1ccc(OC)c(OC)c1)C(C)Cc1ccc(OC)cc1` (configuration not stated) [Mebeverine hydrochloride]: the IC50 cell viability was above 45.8 µM (ICRF193 0 nM) and above 45.8 µM (ICRF193 200 nM).
For the compound `C[N+](C)(C)C1CCC(CC2CCC([N+](C)(C)C)CC2)CC1` (configuration not stated) [Mebezonium Iodide], the IC50 cell viability was above 45.8 µM (ICRF193 0 nM) and above 45.8 µM (ICRF193 200 nM).
`Cc1cc(C)c(NC(=O)CN(CC(=O)O)CC(=O)O)c(C)c1Br` [Mebrofenin]: the IC50 cell viability is above 45.8 µM (ICRF193 0 nM) and above 45.8 µM (ICRF193 200 nM).
`CCC(C)C(C)(COC(N)=O)COC(N)=O` (configuration not stated) [Mebutamate] yielded an IC50 cell viability (ICRF193 0 nM) above 45.8 µM and an IC50 cell viability (ICRF193 200 nM) above 45.8 µM.
As to `CNC1(C)C2CCC(C2)C1(C)C` (configuration not stated) [Mecamylamine], the IC50 cell viability is, setting by setting: (ICRF193 0 nM) above 45.8 µM; (ICRF193 200 nM) above 45.8 µM.
In turn, `Cc1ccc(Cl)c(Nc2ccccc2C(=O)O)c1Cl` [Meclofenamate sodium] had an IC50 cell viability (ICRF193 0 nM) above 45.8 µM and an IC50 cell viability (ICRF193 200 nM) above 45.8 µM.
In turn, `CN(C)CCOC(=O)COc1ccc(Cl)cc1` [Meclofenoxate hydrochloride] registered an IC50 cell viability (ICRF193 0 nM) above 45.8 µM and an IC50 cell viability (ICRF193 200 nM) above 45.8 µM.
For `O=P(O)(O)CP(=O)(O)O` [Medronic acid], the IC50 cell viability reads like this: (ICRF193 0 nM) above 45.8 µM; (ICRF193 200 nM) above 45.8 µM.
On to `CC(=O)O[C@]1(C(C)=O)CC[C@H]2[C@@H]3C[C@H](C)C4=CC(=O)CC[C@]4(C)[C@H]3CC[C@@]21C` [Medroxyprogesterone acetate], for which the IC50 cell viability runs as follows: (ICRF193 0 nM) above 45.8 µM; (ICRF193 200 nM) above 45.8 µM.
As to `CC(=O)[C@H]1CC[C@H]2[C@@H]3C[C@H](C)C4=CC(=O)CC[C@]4(C)[C@H]3[C@@H](O)C[C@]12C` [Medrysone], the IC50 cell viability runs as follows: (ICRF193 0 nM) above 45.8 µM; (ICRF193 200 nM) above 45.8 µM.
Turning to `Cc1cccc(Nc2ccccc2C(=O)O)c1C` [Mefenamic acid], the IC50 cell viability reads like this: (ICRF193 0 nM) above 45.8 µM; (ICRF193 200 nM) above 45.8 µM.
For `CC(Cc1ccccc1)NCCCCl` (configuration not stated) [Mefenorex], the IC50 cell viability runs as follows: (ICRF193 0 nM) above 45.8 µM; (ICRF193 200 nM) above 45.8 µM.
In turn, `CN(CC1(C)CCCO1)S(=O)(=O)c1ccc(Cl)c(S(N)(=O)=O)c1` (configuration not stated) [Mefruside] showed an IC50 cell viability (ICRF193 0 nM) above 45.8 µM and an IC50 cell viability (ICRF193 200 nM) above 45.8 µM.
`CC(=O)O[C@]1(C(C)=O)CC[C@H]2[C@@H]3C=C(C)C4=CC(=O)CC[C@]4(C)[C@H]3CC[C@@]21C` [Megestrol acetate]: the IC50 cell viability runs as follows: (ICRF193 0 nM) above 45.8 µM; (ICRF193 200 nM) above 45.8 µM.
On to `CNC[C@H](O)[C@@H](O)[C@H](O)[C@H](O)CO` [Meglumine], for which the IC50 cell viability by setting is: (ICRF193 0 nM) above 45.8 µM; (ICRF193 200 nM) above 45.8 µM.
For the compound `COc1ccc2[nH]cc(CCNC(C)=O)c2c1` [Melatonin], the IC50 cell viability runs as follows: (ICRF193 0 nM) above 45.8 µM; (ICRF193 200 nM) above 45.8 µM.
On to `CCCCC/C=C/C/C=C/CCCCCCCC(=O)NC(C)c1ccccc1` (configuration not stated) [Melinamide], for which the IC50 cell viability runs as follows: (ICRF193 0 nM) above 45.8 µM; (ICRF193 200 nM) above 45.8 µM.
Consider `N[C@@H](Cc1ccc(N(CCCl)CCCl)cc1)C(=O)O` [Melphalan], for which the IC50 cell viability runs as follows: (ICRF193 0 nM) above 45.8 µM; (ICRF193 200 nM) above 45.8 µM.
`CC12CC3CC(C)(C1)CC(N)(C3)C2` [Memantine hydrochloride]: the IC50 cell viability is, setting by setting: (ICRF193 0 nM) above 45.8 µM; (ICRF193 200 nM) above 45.8 µM.
In the case of `CC1=CC(=O)c2ccccc2C1=O` [Menadione], the IC50 cell viability is, setting by setting: (ICRF193 0 nM) above 45.8 µM; (ICRF193 200 nM) above 45.8 µM.
Turning to `CC(C)=CCC/C(C)=C/CC/C(C)=C/CC/C(C)=C/CC/C(C)=C/CC1=C(C)C(=O)c2ccccc2C1=O` [Menaquinone], the IC50 cell viability was above 45.8 µM (ICRF193 0 nM) and above 45.8 µM (ICRF193 200 nM).
As to `C[N+]1(C)CCCC(OC(=O)C(O)(c2ccccc2)c2ccccc2)C1` (configuration not stated) [Mepenzolate bromide], the IC50 cell viability is above 45.8 µM (ICRF193 0 nM) and above 45.8 µM (ICRF193 200 nM).
In turn, `Cc1ccccc1OCC(O)CO` (configuration not stated) [Mephenesin] gave an IC50 cell viability (ICRF193 0 nM) above 45.8 µM and an IC50 cell viability (ICRF193 200 nM) above 45.8 µM.
With `CNC(C)(C)Cc1ccccc1` [Mephentermine hemisulfate], the IC50 cell viability runs as follows: (ICRF193 0 nM) above 45.8 µM; (ICRF193 200 nM) above 45.8 µM.
With `COC1(O[C@H]2CC[C@H]3[C@@H]4CC[C@H]5C[C@@H]6S[C@@H]6C[C@]5(C)[C@H]4CC[C@]23C)CCCC1` [Mepitiostane (Contains ~15% 3a,4a-Epithio isomer)], the IC50 cell viability was above 45.8 µM (ICRF193 0 nM) and above 45.8 µM (ICRF193 200 nM).
With `Cc1ccc2c(n1)Oc1ccc(C(C)C(=O)OCC(=O)N(C)C)cc1C2` (configuration not stated) [Mepranoprofen arbamel], the IC50 cell viability is above 45.8 µM (ICRF193 0 nM) and above 45.8 µM (ICRF193 200 nM).
Regarding `C[C@H]1C[C@H]2[C@@H]3CCC4=CC(=O)C=C[C@]4(C)[C@H]3C(=O)C[C@]2(C)[C@@]1(O)C(=O)CO` [Meprednisone], the IC50 cell viability by setting is: (ICRF193 0 nM) above 45.8 µM; (ICRF193 200 nM) above 45.8 µM.
Turning to `CCCNC(C)(C)COC(=O)c1ccccc1` [Meprylcaine hydrochloride], the IC50 cell viability by setting is: (ICRF193 0 nM) above 45.8 µM; (ICRF193 200 nM) above 45.8 µM.
`CCC1(c2cccc(O)c2)CCCCN(C)C1` (configuration not stated) [Meptazinol hydrochloride] registered an IC50 cell viability (ICRF193 0 nM) above 45.8 µM and an IC50 cell viability (ICRF193 200 nM) above 45.8 µM.
`O=C([O-])c1ccccc1-c1c2cc(Br)c(=O)cc-2oc2[c]([Hg+])c([O-])c(Br)cc12.[Na+].[Na+].[OH-]` [Merbromin]: the IC50 cell viability by setting is: (ICRF193 0 nM) above 45.8 µM; (ICRF193 200 nM) above 45.8 µM.
`C[C@@H](O)[C@H]1C(=O)N2C(C(=O)O)=C(S[C@@H]3CN[C@H](C(=O)N(C)C)C3)[C@H](C)[C@H]12` [Meropenem]: the IC50 cell viability is above 45.8 µM (ICRF193 0 nM) and above 45.8 µM (ICRF193 200 nM).
As for `COC([CH2][Hg+])CNC(=O)c1ccccc1OCC(=O)O.[OH-]` (configuration not stated) [Mersalyl acid], the IC50 cell viability is above 45.8 µM (ICRF193 0 nM) and above 45.8 µM (ICRF193 200 nM).
As for `CN1CCCCC1CCN1c2ccccc2Sc2ccc([S+](C)[O-])cc21` (configuration not stated) [Mesoridazine], the IC50 cell viability is, setting by setting: (ICRF193 0 nM) above 45.8 µM; (ICRF193 200 nM) above 45.8 µM.
In the case of `C#C[C@]1(O)CC[C@H]2[C@@H]3CCc4cc(OC)ccc4[C@H]3CC[C@@]21C` [Mestranol], the IC50 cell viability is above 45.8 µM (ICRF193 0 nM) and above 45.8 µM (ICRF193 200 nM).
Regarding `C[C@H](N)[C@H](O)c1cccc(O)c1` [Metaraminol bitartrate], the IC50 cell viability (ICRF193 0 nM) is above 45.8 µM and the IC50 cell viability (ICRF193 200 nM) was above 45.8 µM.
Regarding `Cc1cc(C)cc(OCC2CNC(=O)O2)c1` (configuration not stated) [Metaxalone], the IC50 cell viability reads like this: (ICRF193 0 nM) above 45.8 µM; (ICRF193 200 nM) above 45.8 µM.
For `CN(C)C(=N)NC(=N)N` [Metformin], the IC50 cell viability is above 45.8 µM (ICRF193 0 nM) and above 45.8 µM (ICRF193 200 nM).
`CC(=O)OC(C)C[N+](C)(C)C` (configuration not stated) [Methacholine chloride]: the IC50 cell viability reads like this: (ICRF193 0 nM) above 45.8 µM; (ICRF193 200 nM) above 45.8 µM.
With `C=C1c2cccc(O)c2C(=O)C2=C(O)[C@]3(O)C(=O)C(C(N)=O)=C(O)[C@@H](N(C)C)[C@@H]3[C@@H](O)[C@H]12` [Methacycline hydrochloride], the IC50 cell viability is, setting by setting: (ICRF193 0 nM) above 45.8 µM; (ICRF193 200 nM) above 45.8 µM.
`CC[N+](C)(CC)CCOC(=O)C1c2ccccc2Oc2ccccc21` [Methantheline bromide]: the IC50 cell viability is above 45.8 µM (ICRF193 0 nM) and above 45.8 µM (ICRF193 200 nM).
In the case of `CN(C)CCN(Cc1cccs1)c1ccccn1` [Methapyrilene hydrochloride], the IC50 cell viability runs as follows: (ICRF193 0 nM) above 45.8 µM; (ICRF193 200 nM) above 45.8 µM.
For the compound `CCC1(CC)C(=O)NC(=O)N(C)C1=O` [Metharbital], the IC50 cell viability was above 45.8 µM (ICRF193 0 nM) and above 45.8 µM (ICRF193 200 nM).
With `CC(=O)/N=c1/sc(S(N)(=O)=O)nn1C` [Methazolamide], the IC50 cell viability is, setting by setting: (ICRF193 0 nM) above 45.8 µM; (ICRF193 200 nM) above 45.8 µM.
Consider `C1N2CN3CN1CN(C2)C3` [Methenamine], for which the IC50 cell viability (ICRF193 0 nM) was above 45.8 µM and the IC50 cell viability (ICRF193 200 nM) is above 45.8 µM.
Turning to `CC(=O)O[C@H]1CC[C@H]2[C@@H]3CC[C@H]4CC(=O)C=C(C)[C@]4(C)[C@H]3CC[C@]12C` [Methenolone (acetate)], the IC50 cell viability was above 45.8 µM (ICRF193 0 nM) and above 45.8 µM (ICRF193 200 nM).

The values above are taken from the supplement of paper PMC12137928.
